Data reported in US9388174B2, “Azole benzene derivative” (TEIJIN PHARMA LIMITED, priority 2013, dated 2016).
pIC50: −log10 of the molar value.

molecular target: T1, oxidase-type xanthine oxidoreductase (from buttermilk) (Bos taurus, UniProt P80457); experiment: xanthine oxidase inhibitory activity (change of absorbance at 290 nm); type: biochemical; conditions: xanthine substrate, read-out: Inhibitor Activity
T1 construct: purchased Calbiochem Novabiochem Corp; host or cells: buttermilk (natural source)
Protocol: Test compound was dissolved in DMSO (manufactured by Sigma Co.) to prepare a 20 mM solution. The solution was adjusted to an optimal concentration and used for the testing.
This evaluation was carried out by measuring oxidase-type xanthine oxidoreductase activity. Concretely, a xanthine (manufactured by Sigma Co.) solution was prepared at 10 mM using a 20 mM sodium hydroxide solution and then mixed with 100 mM phosphate buffer to adjusted to 30 μM. 75 μL of the solution was added to each well of the 96-well plate. The test compound diluted with DMSO at 100 times of a final concentration was added to each well at 1.5 μL per well. […] Immediately after mixing, the change of absorbance at 290 nm was measured for 5 minutes. The enzyme activity of DMSO solution without test compound was used as 100% control, and the inhibitory rate of the test compounds was calculated. Fifty percent inhibitory concentration of the test compounds on the oxidase-type xanthine oxidoreductase activity was calculated by fitting to the dose-response curve.

T1 sequence (P80457 whole entry): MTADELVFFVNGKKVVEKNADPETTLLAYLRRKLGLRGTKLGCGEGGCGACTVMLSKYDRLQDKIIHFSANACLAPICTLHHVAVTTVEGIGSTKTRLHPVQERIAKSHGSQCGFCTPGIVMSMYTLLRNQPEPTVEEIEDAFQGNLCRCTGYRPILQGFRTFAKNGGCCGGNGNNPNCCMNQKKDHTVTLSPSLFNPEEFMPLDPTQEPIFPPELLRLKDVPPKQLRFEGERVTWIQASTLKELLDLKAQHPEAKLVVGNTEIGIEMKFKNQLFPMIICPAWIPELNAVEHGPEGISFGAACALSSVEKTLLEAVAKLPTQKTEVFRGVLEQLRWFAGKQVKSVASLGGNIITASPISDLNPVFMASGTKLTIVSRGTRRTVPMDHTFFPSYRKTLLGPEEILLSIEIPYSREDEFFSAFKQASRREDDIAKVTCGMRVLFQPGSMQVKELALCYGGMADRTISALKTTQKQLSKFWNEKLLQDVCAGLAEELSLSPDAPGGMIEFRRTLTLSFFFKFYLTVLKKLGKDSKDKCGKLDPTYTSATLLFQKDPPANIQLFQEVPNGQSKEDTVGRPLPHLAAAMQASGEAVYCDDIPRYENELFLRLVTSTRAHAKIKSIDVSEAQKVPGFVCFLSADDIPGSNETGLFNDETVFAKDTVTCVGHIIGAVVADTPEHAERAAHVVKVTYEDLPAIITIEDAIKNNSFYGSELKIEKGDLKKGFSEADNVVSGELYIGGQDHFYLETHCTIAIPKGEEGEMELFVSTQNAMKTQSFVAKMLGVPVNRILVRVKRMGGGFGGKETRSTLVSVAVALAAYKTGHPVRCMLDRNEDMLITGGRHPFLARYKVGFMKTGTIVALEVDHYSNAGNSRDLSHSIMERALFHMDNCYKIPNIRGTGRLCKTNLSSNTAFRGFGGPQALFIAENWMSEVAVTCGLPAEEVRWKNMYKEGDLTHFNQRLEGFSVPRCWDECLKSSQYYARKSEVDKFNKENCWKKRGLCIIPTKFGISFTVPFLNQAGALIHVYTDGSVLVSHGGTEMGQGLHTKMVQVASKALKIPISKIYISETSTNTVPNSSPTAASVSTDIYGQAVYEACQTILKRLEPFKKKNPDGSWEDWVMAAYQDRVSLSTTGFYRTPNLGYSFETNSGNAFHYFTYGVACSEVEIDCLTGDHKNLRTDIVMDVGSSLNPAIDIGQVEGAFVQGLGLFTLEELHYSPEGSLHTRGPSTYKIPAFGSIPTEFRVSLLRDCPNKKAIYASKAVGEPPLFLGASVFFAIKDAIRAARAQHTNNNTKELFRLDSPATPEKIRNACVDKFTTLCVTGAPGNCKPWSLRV

Cc1nc(-c2ccc(Oc3cccc(F)c3)c(-n3cnnn3)c2)sc1C(=O)O [compound 37, 2-[4-(3-fluorophenoxy)-3-(1H-1,2,3,4-tetrazol-1-yl)phenyl]-4-methyl-1,3-thiazole-5-carboxylic acid] was tested. Which pIC50 did it give?
Its pIC50 is 8.30 to 9.00.

How did the pIC50 turn out when Cc1cccc(Oc2ccc(-c3nc(C)c(C(=O)O)s3)cc2-n2cnnn2)c1 [compound 38, 2-[4-(3-methylphenoxy)-3-(1H-1,2,3,4-tetrazol-1-yl)phenyl]-4-methyl-1,3-thiazole-5-carboxylic acid] was run?
Its pIC50 is 8.30 to 9.00.

Cc1nc(-c2ccc(Oc3ccccc3Cl)c(-n3cnnn3)c2)sc1C(=O)O [compound 39, 2-[4-(2-chlorophenoxy)-3-(1H-1,2,3,4-tetrazol-1-yl)phenyl]-4-methyl-1,3-thiazole-5-carboxylic acid] was tested. Which pIC50 did it give?
The pIC50 was 8.30 to 9.00.

How did the pIC50 turn out when Cc1cc(Oc2ccc(-c3nc(C)c(C(=O)O)s3)cc2-n2cnnn2)ccc1F [compound 40, 2-[4-(4-fluoro-3-methylphenoxy)-3-(1H-1,2,3,4-tetrazol-1-yl)phenyl]-4-methyl-1,3-thiazole-5-carboxylic acid] was run?
Its pIC50 is 8.30 to 9.00.

Cc1cc(F)ccc1Oc1ccc(-c2nc(C)c(C(=O)O)s2)cc1-n1cnnn1 [compound 41, 2-[4-(4-fluoro-2-methylphenoxy)-3-(1H-1,2,3,4-tetrazol-1-yl)phenyl]-4-methyl-1,3-thiazole-5-carboxylic acid] was tested. Which pIC50 did it give?
Its pIC50 is 8.30 to 9.00.

With Cc1nc(-c2ccc(Oc3ccc(F)cc3F)c(-n3cnnn3)c2)sc1C(=O)O [compound 42, 2-[4-(2,4-difluorophenoxy)-3-(1H-1,2,3,4-tetrazol-1-yl)phenyl]-4-methyl-1,3-thiazole-5-carboxylic acid] as the compound, how does the pIC50 read?
Its pIC50 is 8.30 to 9.00.

COc1cccc(F)c1Oc1ccc(-c2nc(C)c(C(=O)O)s2)cc1-n1cnnn1 [compound 43, 2-[4-(2-fluoro-6-methoxyphenoxy)-3-(1H-1,2,3,4-tetrazol-1-yl)phenyl]-4-methyl-1,3-thiazole-5-carboxylic acid] was tested. Which pIC50 did it give?
Its pIC50 is 8.30 to 9.00.

How did the pIC50 turn out when Cc1ccccc1Oc1ccc(-c2nc(C)c(C(=O)O)s2)cc1-n1cnnn1 [compound 44, 2-[4-(2-methylphenoxy)-3-(1H-1,2,3,4-tetrazol-1-yl)phenyl]-4-methyl-1,3-thiazole-5-carboxylic acid] was run?
Its pIC50 is 8.30 to 9.00.

How did the pIC50 turn out when Cc1ccc(Oc2ccc(-c3nc(C)c(C(=O)O)s3)cc2-n2cnnn2)cc1 [compound 45, 2-[4-(4-methylphenoxy)-3-(1H-1,2,3,4-tetrazol-1-yl)phenyl]-4-methyl-1,3-thiazole-5-carboxylic acid] was run?
The pIC50 was 8.30 to 9.00.

Cc1cc(F)cc(Oc2ccc(-c3nc(C)c(C(=O)O)s3)cc2-n2cnnn2)c1 [compound 46, 2-[4-(3-fluoro-5-methylphenoxy)-3-(1H-1,2,3,4-tetrazol-1-yl)phenyl]-4-methyl-1,3-thiazole-5-carboxylic acid] was tested. Which pIC50 did it give?
Its pIC50 is 8.30 to 9.00.

Cc1nc(-c2ccc(Oc3cc(F)ccc3F)c(-n3cnnn3)c2)sc1C(=O)O [compound 47, 2-[4-(2,5-difluorophenoxy)-3-(1H-1,2,3,4-tetrazol-1-yl)phenyl]-4-methyl-1,3-thiazole-5-carboxylic acid] was tested. Which pIC50 did it give?
The pIC50 was 8.30 to 9.00.

With Cc1ccc(F)c(Oc2ccc(-c3nc(C)c(C(=O)O)s3)cc2-n2cnnn2)c1 [compound 48, 2-[4-(2-fluoro-5-methylphenoxy)-3-(1H-1,2,3,4-tetrazol-1-yl)phenyl]-4-methyl-1,3-thiazole-5-carboxylic acid] as the compound, how does the pIC50 read?
The pIC50 was 8.30 to 9.00.

With Cc1nc(-c2ccc(SC(C)C)c(-n3cnnn3)c2)sc1C(=O)O [compound 50, 4-methyl-2-[4-(propan-2-ylsulfanyl)-3-(1H-1,2,3,4-tetrazol-1-yl)phenyl]-1,3-thiazole-5-carboxylic acid] as the compound, how does the pIC50 read?
The pIC50 was 8.30 to 9.00.

Cc1ccc(Sc2ccc(-c3nc(C)c(C(=O)O)s3)cc2-n2cnnn2)cc1 [compound 51, 4-methyl-2-{4-[(4-methylphenyl)sulfanyl]-3-(1H-1,2,3,4-tetrazol-1-yl)phenyl}-1,3-thiazole 5-carboxylic acid] was tested. Which pIC50 did it give?
The pIC50 was 8.30 to 9.00.

tested on: level of uric acid in the plasma; experiment: Hypouricemic effect (oxonic acid-induced hyperuricemic beagle dogs); type: in vivo; conditions: hyperuricemic beagle dog, oral, 10 mg/kg, 8 hours after administration
Protocol: Potassium oxonate (50 mg/kg) was subcutaneously administrated before and 4 hours after compound administration. After the blood was collected from the cephalic vein at 8 hours after administration, the plasma was separated. The level of uric acid in the plasma sample was measured by LC-MS/MS method and the percentage of hypouricemic effect was determined by the following expression: Percentage of hypouricemic effect (%)=(Level of uric acid of the control animal−Level of uric acid of the test compound-administered animal)×100/Level of uric acid of the control animal.

With Cc1nc(-c2ccc(OCC(C)C)c(-n3cnnn3)c2)sc1C(=O)O [Compound No. 25, 4-methyl-2-[4-(2-methylpropoxy)-3-(1H-1,2,3,4-tetrazol-1-yl)phenyl]-1,3-thiazole-5-carboxylic acid] as the compound, how does the hypouricemic effect read?
Its hypouricemic effect is “showed a hypouricemic effect”.
